Data as given in patent US20260166000A1, “1,8-CINEOLE CONTAINING COMPOSITION FOR THERAPEUTIC USE” (Maria Clementine Martin Klosterfrau Vertriebsgesellschaft …, priority 2020, published 2026).
“Also recorded” adds a separate entry of the source.

Legend:
[1] = system: intestinal microbiome; assay: Microbiome sequencing of stool samples, principal coordinates analysis (PCoA); format: in vivo, human; conditions: patients with polyposis nasi; before vs after 2-week ingestion, 200 mg 3 times a day (Soledum forte)
Protocol: (§1) As part of the studies, the stool samples of patients with polyposis nasi are analyzed under the influence of 1,8-cineole. For this purpose, a stool sample is first taken before starting the administration of 1,8-cineole and then again after 2 weeks of taking 1,8-cineole 3 times a day (Soledum® forte, content of 1,8-cineole: 200 mg).
(§2) Stool Stabilizer (company: Stratec Molecular) is added to the stool samples and initially stored at a temperature of −20° C. until further processing. Subsequent DNA extraction is performed using the PSP Spin Stool DNA Plus kit according to the manufacturer's instructions (Stratec Molecular). Finally, the isolated DNA is used for microbiome sequencing (TG MiSeq Reagent Kit v3 & NEBNext® Library Quant Kit for Illumina) and analyzed.
The results are illustrated in FIG. 1 in the form of principal coordinate analysis (PCoA) of the examined stool samples of the patients (1 to 5) with polyposis nasi before (without labeling, unfilled circle symbols) and after 2-week ingestion of 1,8-cineole (marked with “*”, filled circle symbols).

[2] = system: Lachnospiraceae, Bifidobacterium or Faecalibacterium; assay: Microbiome sequencing of stool samples, bacterial genera; format: in vivo, human; conditions: patients with polyposis nasi; after 2-week therapy, 200 mg 3 times a day
Protocol: as §1, §2
(§3) Following this initial evaluation regarding existing alterations or changes in the intestinal microbiome of patients with polyposis nasi after 2-week ingestion of 1,8-cineole, a detailed evaluation of the microbiome sequencing performed will be performed regarding the bacterial genera identified.

[3] = system: bacteria of the family Ruminococcacea or the genus Ruminococcus; assay: as above; format: in vivo, human; conditions: patients with polyposis nasi; after 2-week ingestion, 200 mg 3 times a day
Protocol: as §1, §2, §3

[4] = system: bacterial genus Prevotella; assay: as above; format: in vivo, human; conditions: patients with polyposis nasi; after 2-week ingestion, 200 mg 3 times a day
Protocol: as §1, §2, §3

[5] = system: genus Bacteroides; assay: as above; format: in vivo, human; conditions: patients with polyposis nasi; after 2-week therapy, 200 mg 3 times a day
Protocol: as §1, §2, §3

[6] = system: cellular complexes of circulating platelets (CD41) with leukocytes; assay: Flow cytometry of cellular complexes of circulating platelets with leukocytes in blood; format: in vivo, human; conditions: for cellular complexes, neutrophils (Neutros), after / cellular complexes, lymphocytes (Lymphos), after / cellular complexes, eosinophils (Eosinos), after / cellular complexes, monocytes (Monos), after: blood of patients with polyposis nasi, after 2-week administration
Excerpt: Further, these cellular complexes will be specified in more detail by flow cytometer with respect to different leukocyte populations and with respect to the influence of 1,8-cineole.

[7] = system: monocytes circulating in the blood; assay: Flow cytometry of monocyte subtypes (CD14/CD16) in blood; format: in vivo, human
Protocol: The monocytes circulating in the blood can be divided into the three different subtypes, namely “classical”, “intermediate” and “non-classical”, on the basis of their surface proteins CD14 and CD16 by flow cytometry. In flow cytometry, cells are analyzed for cell size, granularity and fluorescent labeling of specific epitopes by passing specific lasers. This allows different cell populations to be differentiated and characterized. […] These observations are now comprehensively analyzed in additional patients individually by flow cytometer, especially under the influence of 1,8-cineole. […] In this regard, reference can also be made to FIG. 5A/B.

[8] = system: patients with polyposis nasi; assay: Patient perception and clinical therapy of polyposis nasi; format: in vivo, human
Protocol: In addition to the molecular biological investigations, the individual perception and quality of life of the patients with regard to the 2-week intake of 1,8-cineole is also surveyed. […] In 38 patients (23 men/15 women between 28 and 72 years, average age 54 years) each with polyposis nasi a therapy with 1,8-cineole was performed (3 times 200 mg 1,8-cineole in the form of capsules “Soledum® forte”).

[9] = system: Chronic polypous sinusitis; assay: Clinical use in chronic polypous sinusitis; format: in vivo, human
Protocol: (§4) In addition, the effect of 1,8-cineole is further investigated on the basis of the following areas of application, with 200 mg of 1,8-cineole being administered 3 times a day for the period indicated in each case (Soledum® forte): • 1. Chronic polypous sinusitis • 2. Chronic recurrent catarrhal sinusitis • 3. Chronic polyposis otitis media without cholesteatoma • 4. Chronic polyposis otitis media with cholesteatoma • Ad 1.

[10] = system: Chronic recurrent catarrhal sinusitis; assay: Clinical use in chronic recurrent catarrhal sinusitis; format: in vivo, human
Protocol: as §4

[11] = system: Chronic polyposis otitis media without cholesteatoma; assay: Clinical use in chronic polyposis otitis media without cholesteatoma; format: in vivo, human
Protocol: as §4

[12] = system: Chronic polyposis otitis media with cholesteatoma; assay: Clinical use in chronic polyposis otitis media with cholesteatoma; format: in vivo, human
Protocol: as §4

[13] = system: Patients with persistent bronchial asthma; assay: Clinical use in persistent bronchial asthma as add-on therapy; format: in vivo, human
[14] = cited from earlier work
[15] = 38 patients with polyposis nasi, 3 times 200 mg, Soledum forte capsules
[16] = one case, small polyps on the olfactory groove, after 2 weeks
[17] = 200 mg 3 times a day, 2-week administration, preoperatively
[18] = 2-week administration, preoperatively, previously refractory otorrhea (local and systemic antibiotics)
[19] = after tympanoplasty, renewed otorrhea with recurrent perforation, 4-week administration
[20] = 2-week administration, preoperatively
[21] = after tympanoplasty, renewed otorrhea with recurrent perforation, 4 weeks of administration
[22] = twelve weeks of continuous therapy

CC12CCC(CC1)C(C)(C)O2 [1,8-cineole, 1,3,3-trimethyl-2-oxabicyclo[2.2.2]octane]
shift of beta diversity (PCoA) of stool samples [1]: clear shift
occurrence of Lachnospiraceae, Bifidobacterium or Faecalibacterium [2]: certain changes or shifts with a tendency to increase
bacteria of the family Ruminococcacea or genus Ruminococcus [3]: significant increase
presence of Prevotella in the intestine [4]: significantly reduced; also recorded: almost complete disappearance
occurrence of Bacteroides in the intestinal microbiome [5]: significantly more abundant
cellular complexes, neutrophils (Neutros), after ([6]; Table 2 (data n2), before 5.37%): 5.09%
cellular complexes, lymphocytes (Lymphos), after ([6]; Table 2 (data n2), before 5.4%): 5.12%
cellular complexes, eosinophils (Eosinos), after ([6]; Table 2 (data n2), before 10.7%): 4.8%
cellular complexes, monocytes (Monos), after ([6]; Table 2 (data n2), before 16.8%): 6.28%
cellular complexes, eosinophils (Eosinos), after ([6]; data n1, before 7.3%): 5.92%
cellular complexes, lymphocytes (Lymphos), after ([6]; data n1, before 12.4%): 5.54%
cellular complexes, neutrophils (Neutros), after ([6]; data n1, before 13.9%): 5.02%
cellular complexes, monocytes (Monos), after ([6]; data n1, before 14.7%): 8.79%
monocyte complexes in blood ([6]; patients with polyposis nasi, after taking over a period of two weeks): massive reduction
monocyte distribution, additional patients analysed individually ([7]; additional patients, 2-week therapy (FIG. 5A/B)): restoration of the monocyte distribution
CD16 "classical" monocytes (CD16 neg.) ([7]; after 2-week therapy (FIG. 5A)): significant increase
"intermediate" monocytes (CD16 pos.) ([7]; after 2-week therapy (FIG. 5B)): clear decrease
distribution of monocyte subpopulations ([7]; patients with polyposis nasi, after 2-week intake, compared with healthy donors (FIG. 4)): marked normalization or reversion
nasal breathing [8, 15]: correspondingly improved
secretion drainage [8, 15]: significantly improved
nasal polyps [8, 16]: significant decrease
olfactory sensation [8, 16]: marked improvement
patients' response (individual perception and quality of life) ([8]; polyposis patients consulted, 2-week intake): predominantly positive
accompanying symptoms of the polyps (anterior and posterior watery rhinorrhea) [9, 17]: reduction of the accompanying symptoms
olfactory performance ([9]; 200 mg 3 times a day, 2-week administration, preoperatively, individual cases): In individual cases also improvement
wound healing ([9]; postoperative): positive influence
recurrences and systemic cortisone administration ([9]; postoperative, in combination with a nasal steroid): reduction of recurrences and systemic cortisone administration
concomitant symptoms of polyps (anterior and posterior watery rhinorrhea) [10, 17]: decrease in concomitant symptoms
olfactory performance [10, 17]: significant improvement
use of nasal steroids ([10]; postoperative): reduction of nasal steroids
wound healing ([10]; postoperative): positive influence
otorrhea [11, 18]: decrease in otorrhea, allowing surgery
otorrhea [11, 19]: decrease in otorrhea
tympanic membrane [11, 19]: spontaneous tympanic membrane closure
cholesteatom masses [12, 20]: no reduction
inflamed mucosa of middle ear and mastoid [12, 20]: positive effect
concomitant otorrhea [12, 18]: decrease in concomitant otorrhea, allowing surgery
otorrhea [12, 21]: decrease of otorrhea
tympanic membrane [12, 21]: spontaneous tympanic membrane closure
tolerability ([13]; 4 times 200 mg/die perorally): well tolerated without side effects
lung function ([13]; 4 times 200 mg/die perorally, one week, with inhaled glucocorticoid, long-acting beta-2-sympathomimetic and theophylline): slight to moderate improvement
reduction of inhaled glucocorticoid requirements ([13]; 4 times 200 mg/die perorally, twelve weeks of continuous therapy): more than 50%
glucocorticoid use in some of the patients treated [13, 22]: temporarily discontinued altogether
need for betamimetics in some patients [13, 22]: significantly reduced
solubility in water [14]: insoluble
